Patent publication US9555045B2, “Use of prostaglandins F2alpha and analogues for the healing of corneal and conjunctival lesions” (SANTEN SAS, priority 2009, dated 2017)

System: Sprague-Dawley rats
Conditions: rat
Protocol: Brief description of the protocol: 16 male Sprague-Dawley rats weighting 100 to 125 g were randomly assigned to 4 groups (4 rats per group (Gp)): Gp1, Phosphate buffer solution (PBS); Gp2, 0.02% benzalkonium chloride (BAK); Gp3, Xalatan®; Gp4, Latanoprost Emulsion. Following general and local anesthesia with ketamine/xylazine and topical Oxybucaïne, respectively, the upper part of the right eye cornea of each rat was scraped with a surgical scalpel following an application of 50 μl of 50% ethanol solution. The upper corneal and limbal epithelia were removed (at day D0). One drop of Tobrex was instilled immediately after the scraping. 2 and 5 hours post scraping one drop of the different test articles were applied onto the cornea of the right eye. These latter instillations were repeated every day for 4 days, and corneal evaluation with an in vivo confocal microscope (IVCM-HRT) was performed on day 4 after the last instillation. At the end of the experimental procedure (the total duration of the treatment is 5 days; from day D0 to D4), the animals were sacrificed and the eyes harvested to characterize the histological organisation of the treated cornea.

IVCM (in vivo confocal microscopy) of superficial epithelium: scar tissue / hypereflectivity: corneal edema and tissue disorganisation
Substance: benzalkonium chloride [0.02% BAK solution]
Hematoxylin-eosin staining of treated cornea (epithelium thinning, edema, inflammatory infiltrates) (in vivo): edemas and inflammatory infiltrates are particularly obvious
